Test results taken from US20050089577A1, “Liquid matrix undergoing phase transfer in vivo and liquid oral preparations” (priority 2002, published 2005).
Several values for one entry are separate records, joined by “and”; a condition that tells them apart may be missing. Identical values can stand only once. Counter-ions that a name gives are not always drawn. Each block holds one compound with its values, some of them ahead of it.

Legend:
acetic acid ulcer = assay: Therapeutic effect in rat acetic acid chronic ulcer model; format: in vivo, Wister male rats; conditions: 0.5 ml daily once for 2 weeks, eighth week; for Average ulcer coefficient: 3 rats; for Ulcer coefficient: individual rats
Source text: That is, the rats were anesthetized under Nembutal and the belly was cut along the midline to remove the stomach. Then, a cylinder of […] in diameter charged with absorbent cotton impregnated sufficiently with 100% acetic acid was pressed against the border between the stomach and the pyloric region for about 30 seconds, and the acetic acid adhering to the serous membrane was wiped off with a germ-free gauze, and the belly was sutured. After 6 weeks, one rat was picked up as the control at random from the untreated group, killed and dissected to confirm ulcer formation. […] In the seventh and eight weeks, one untreated rat selected at random was killed and the belly was opened to reconfirm formation of stomach ulcer. Each rat was killed in the eight week and the area of the ulcer was measured, and the ulcer coefficient was determined according to a method of Okabe et al. (Okabe S, Roth […] method for experimental penetrating gastric and duodenal ulcers in rats. Observation on normal healing. Amer J Dig Dis 16: 277-284, 1971).

[1] = rat, in vivo, 20 mg/kg
Description: These rats were fasted for 24 hours, and then indomethacin (IND) suspended in 1% carboxymethyl cellulose (CMS) solution was administered in a dose of 20 mg/kg to the rats via an oral probe for rat into the stomach to induce indomethacin ulcer.

indomethacin ulcer = assay: Therapeutic effect in indomethacin ulcer rat model; format: in vivo, Wister male rats; set-up: key: no bleeding was expressed as negative (−); trace bleeding was given (±); dotted bleeding (+); broad bleeding (++); conditions: individual rats; given 3 hours after indomethacin 20 mg/kg; judged after 24 hours; PGE1 3.3 μg/kg
Description: 3 hours after administration of indomethacin, prostaglandin (PGE1) liquid preparation No. 41 (containing alprostadil alfadex as the medicine), PGE1 solution dissolved in purified water in a dose of 3.3 μg/kg in weight as a positive control, the liquid matrix only was administered as a negative control, and purified water only for confirming formation of ulcer to the untreated group, respectively, was administered. After 1 hour, the rats were given feed. The untreated group after 3 hours from administration of indomethacin and the other groups after 24 hours were killed, and dissected to judge ulcer and bleeding in the stomach.
Indomethacin ulcer in the fasted rats is different from that in humans, and develops in the stomach without generating in the pyloric vestibule. Therefore, judgment was made on the basis of bleeding. That is, no bleeding was expressed as negative (−), trace bleeding was given (±), dotted bleeding (+), and broad bleeding (++).

Compound: CC(=O)CC/C=C(\C)CC/C=C(\C)CC/C=C(\C)CCC=C(C)C [Teprenone solution, teprenone]
Average ulcer coefficient (acetic acid ulcer): 2.33
Ulcer coefficient (acetic acid ulcer): 3 (3 for 21 to 30 mm^2) and 2 (2 for 11 to 20 mm^2) (2×)

Compound: CN/C(=N/CCSCc1nc[nH]c1C)NC#N [Cimetidine solution, cimetidine]
Average ulcer coefficient (acetic acid ulcer): 2.67
Ulcer coefficient (acetic acid ulcer): 3 (3 for 21 to 30 mm^2) (2×) and 2 (2 for 11 to 20 mm^2)

Time at which blood concentration reached the maximum ([1]; male, Wister): 3 h
Compound: COc1ccc2c(c1)c(CC(=O)O)c(C)n2C(=O)c1ccc(Cl)cc1 [indomethacin]
Finding in the stomach [1]: erosive bleeding was observed in the stomach

Compound: NC[C@H]1CC[C@H](C(=O)Oc2ccc(CCC(=O)O)cc2)CC1 [Cetraxate HCl solution, cetraxate hydrochloride]
Average ulcer coefficient (acetic acid ulcer): 2.33
Ulcer coefficient (acetic acid ulcer; hydrochloride): 2 (2 for 11 to 20 mm^2) (2×) and 3 (3 for 21 to 30 mm^2)

Compound: CCCCC[C@H](O)/C=C/[C@H]1[C@H](O)CC(=O)[C@@H]1CCCCCCC(=O)O [PEG1 solution, prostaglandin (PGE1)]
Judgment of bleeding in the stomach (indomethacin ulcer): ± (3×) and + and −
